According to patent US9187539B2, “Compositions having antiangiogenic activity and uses thereof” (The Johns Hopkins University, priority 2005, dated 2015):

How the values were obtained:
[1] = system: angiogenesis (endothelial cell invasion of basement membrane extract with bFGF and VEGF); experiment: Directed in vivo angiogenesis assay (DIVAA), subcutaneously implanted angioreactors; parameters: species or system C57BL/6 mice; conditions: 200 μg/ml peptide with bFGF and VEGF in the matrix; 11 days after implantation
Protocol: A directed in vivo anti-angiogenesis assay (DIVAA) was used to test the anti-angiogenic efficacy of the alpha 5 fibril of collagen type 4, which had the sequence: SAPFIECHGRGTCNYYANS (SEQ ID NO: 91). […] The peptide was solubilized in buffer solution at 200 μg/ml without an organic solvent. DIVAA is a reproducible and quantitative in-vivo method of assaying angiogenesis. It involves preparation of silicon cylinders of 20 μl volume, closed on one side, filled with some type of extracellular matrix (for example Matrigel or BME-basement membrane extract) with or without premixed angiogenic factors. These angioreactors are then implanted subcutaneously in the dorsal flank of mice. Accompanied with the onset of angiogenesis, vascular endothelial cells migrate into the extracellular matrix and form vessels in the angioreactor. […]
To obtain a quantitative assessment of the angiogenic invasion, the content of the angioreactors was removed from the cylinder and the endothelial cells were stained using FITC-Lectin (FIG. 38A) Once the tubes were extracted from the mice, the inside of the angioreactors was rinsed with 300 μl of a 36 kDa, bacillus-derived neutral metalloproteinase which is commercially available as Cellsperse (Trevigen, Inc., Gaithersburg, Md.), an extracellular matrix digesting solution and the content of the reactors as well as the rinse was transferred into a microtube. […]

[2] = system: human umbilical vein endothelial cells (HUVECs); experiment: HUVEC proliferation assay (WST-1), 2- and 4-day, 5,000 cells per well; type: cell-based
Protocol: The effect of the various peptides on cell proliferation was assayed, by administering the peptides to human umbilical vein endothelial cells (HUVECs) in culture. 45 peptides belonging to four distinct families of proteins including the thrombospondin-1 containing proteins, the C-X-C chemokines, collagen derived peptides and peptides from tissue inhibitors of metalloproteinases were tested. The potency of each of the peptides was tested using the proliferation assay at 2 days and 4 days following administration of the peptides and a similar assay using a different cell density at 3 days. In the four-day experiments, the cell medium was changed after the second day of incubation and the peptide was replaced at the initial concentration together with the medium. TNP-470 is an antiangiogenic compound that was used as a positive control for assessing anti-angiogenic efficacy. The activity of each polypeptide was, therefore, expressed as a percentage of TNP-470 activity, i.e., the optical density obtained experimentally is scaled such that the negative control is 0% and the positive control is 100% as explained below (FIG. 4). Each plate included a well having HUVEC cells that received 0.1 μg/ml TNP-470. For example, a peptide having the same effect on endothelial cell proliferation would have 100% of the activity of TNP-470. Note that activity could exceed 100%. In this assay, the effects of the predicted anti-angiogenic fragments on the ability of HUVECs to proliferate was characterized. […] A commonly used methodology to test for proliferation is to monitor the viability and metabolic activity of endothelial cells, in the presence of the anti-angiogenic fragments at different concentrations and various time steps. The cell proliferation reagent WST-1 was used as a substrate/assay to measure the metabolic activity of viable cells. WST-1 is a colorimetric, non-radioactive assay and can be performed in a microplate. It is suitable for measuring cell proliferation, cell viability or cytotoxicity. The assay is based on the reduction a red tetrazolium salt, WST-1, by viable, metabolically active, cells to form the yellow formazan crystals soluble in the cell medium. […] The cells are cultured described above. Once cells have reached 80% confluence they are trypsinized and resuspended in EGM-2. The cell density is estimated using a hemocytometer. All of the endothelial cells used were from passage 4 to passage 8. The proliferation assay involved two steps. During the first step the cells, approximately 5,000 cells per well for a 96-well plate, were seeded without any extracellular matrix substrate on the wells overnight (8 hours). The initial cell culture medium was removed using a multichannel pipetor and the candidate peptides were applied. A logarithmic scale of four different concentrations of 0.01 μg/ml, 0.1 μg/ml, 1 μg/ml and 10 μg/ml of each peptide was used. Each of the concentrations was tested in quadruplicate. The viability of the cells was challenged at 2 and 4 days upon the application of the peptide. As a positive control for decreased viability, 0.1 μg/ml of TNP-470 (O-(chloro-acetyl-carbamoyl) fumagillol, a synthetic analogue of fumagillin; TNP-470 was provided by NCI, was provided along with the medium, and as a negative control for normal viability, the cells were cultured without the addition of any agent. The cells were then incubated with 10 μl per well of the red WST-1 reagent for approximately 2 to 4 hours. During this incubation period, viable cells converted, in their mitochondria, the red WST-1 to the yellow formazan crystals which dissolve in the medium. The second step of the assay involved the quantification of the changes in proliferation which was performed by measuring the change in color after lysing the cells. The samples were read using the ELISA plate reader Victor3 V (Perkin Elmer) at a wavelength of […]. The amount of color produced is directly proportional to the number of viable cells. […]

[3] = system: human umbilical vein endothelial cells (HUVECs); experiment: HUVEC proliferation assay (WST-1), 3-day, 2,000 cells per well; type: cell-based; conditions: 3-day assay
Protocol: In addition to the 2 and 4 day proliferation experiment where 5,000 cells per well were seeded, the effects of the peptides on the proliferating ability of HUVECs were also studied using cells seeded at a density of 2,000 cells per well. This lower cell seeding density allowed the experiment to be extend for an additional day without changing the cell medium. The effects of the peptides when applied to the cells for 3 consecutive days is also reported herein. The proliferation assay again involved two steps. During the first step 2,000 cells per well for a 96-well plate were seeded without any extracellular matrix substrate on the wells overnight (8 hours). The initial cell culture medium was removed using a multichannel pipetor. To synchronize the cells, the cells were serum starved for 4 hours and the candidate peptides were applied. During serum starvation the cell culture medium was changed from a “full” medium to the “basal” medium, which contained no growth factors or serum. Serum starvation for 4 hours had no effect on the proliferation of the cells. For this assay, the logarithmic scale of four different concentrations of 0.01 μg/ml, 0.1 μg/ml, 1 μg/ml and 10 μg/ml of peptide was used. In addition, a larger concentration of 30 μg/ml peptide was also applied. Each of the concentrations was again tested in quadruplicate. After the third day of peptide application the WST-1 dye was applied for approximately 2 to 4 hours (usually after 3 hours the color saturates). The proliferation was later tested on the ELISA plate reader as described for the 2 and 4 day assay. Note that the 2- and 4-day and the 3-day protocols differed in that 5,000 cells/well versus 2,000 cells/well seeded, respectively.

Sequence | endothelial cell invasion of the extracellular matrix in angioreactors [1] | inhibition of angiogenesis in angioreactors [1] | anti-proliferative activity in words ([2]; 2- and 4-day assay, overall) | anti-proliferative activity in words at high peptide concentration ([3]; high/highest applied concentration (30 μg/ml where stated)) | anti-proliferative activity (maximum or stated level), scaled so that TNP-470 = 100% ([2]; 4 days of peptide application, 0.01-10 μg/ml) [%] | anti-proliferative activity, TNP-470 = 100% ([3]; 30 μg/ml peptide) [%]
SAPFIECHGRGTCNYYANS [SEQ ID NO: 91, α5CIV AAC27816.1: 1626-1644] | Fewer endothelial cells invaded the extracellular matrix | strongly inhibited angiogenesis | low activity | activity increases |  | 
YCNINEVCHYARRNDKSYWL [SEQ ID NO: 93, α6CIV CAI40758.1: 1526-1545] |  |  |  |  | 15 | 80
